Data published in PubChem BioAssay (NCI).
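How tested: cells in 96-well plates exposed to compound for 48 hours at five concentrations. TGI: concentration producing complete growth inhibition.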

Assays:
Assay in all cases: DTP human tumour cell line panel, 48 h
M19-MEL melanoma = test system: M19-MEL melanoma
HL-60(TB) leukemia = test system: HL-60(TB) leukemia
SNB-78 CNS = test system: SNB-78 CNS
DLD-1 colon = test system: DLD-1 colon
HCC-2998 colon = test system: HCC-2998 colon
UO-31 renal = test system: UO-31 renal
LXFL 529 NSCLC = test system: LXFL 529 NSCLC
SK-MEL-2 melanoma = test system: SK-MEL-2 melanoma
OVCAR-5 ovarian = test system: OVCAR-5 ovarian
UACC-62 melanoma = test system: UACC-62 melanoma
LOX IMVI melanoma = test system: LOX IMVI melanoma
MDA-MB-231 breast = test system: MDA-MB-231 breast

COc1cc(OC)c2c(O)cc(CC(C)O)cc2c1 (stereo not drawn)
TGI (M19-MEL melanoma): > 100 µM | TGI (HL-60(TB) leukemia): > 100 µM | TGI (SNB-78 CNS): > 100 µM | TGI (DLD-1 colon): > 100 µM | TGI (HCC-2998 colon): > 100 µM | TGI (UO-31 renal): > 100 µM | TGI (LXFL 529 NSCLC): > 100 µM | TGI (SK-MEL-2 melanoma): > 100 µM | TGI (OVCAR-5 ovarian): > 100 µM | TGI (UACC-62 melanoma): > 100 µM | TGI (LOX IMVI melanoma): > 100 µM

Cc1ccc(C(=O)N(C2CCCCC2)C2CCCCC2)cc1N=NN(C)C
TGI (M19-MEL melanoma): 34 µM | TGI (HL-60(TB) leukemia): 23.7 µM | TGI (SNB-78 CNS): 31.4 µM | TGI (DLD-1 colon): 28.6 µM | TGI (HCC-2998 colon): 29.4 µM | TGI (UO-31 renal): 26 µM | TGI (LXFL 529 NSCLC): 27.8 µM | TGI (SK-MEL-2 melanoma): 7.29 µM | TGI (OVCAR-5 ovarian): 38.2 µM | TGI (UACC-62 melanoma): 21.6 µM | TGI (LOX IMVI melanoma): 30.2 µM | TGI (MDA-MB-231 breast): 25.7 µM

O=C(c1ccc(Cl)cc1)c1ccc(OCC(=O)N2CCN(c3ccccc3)CC2)cc1
TGI (M19-MEL melanoma): > 100 µM | TGI (HL-60(TB) leukemia): > 100 µM | TGI (SNB-78 CNS): > 100 µM | TGI (DLD-1 colon): > 100 µM | TGI (HCC-2998 colon): > 100 µM | TGI (UO-31 renal): > 100 µM | TGI (LXFL 529 NSCLC): > 100 µM | TGI (SK-MEL-2 melanoma): > 100 µM | TGI (OVCAR-5 ovarian): > 100 µM | TGI (UACC-62 melanoma): > 100 µM | TGI (LOX IMVI melanoma): > 100 µM

CCCCOC(=O)CNC(=O)OCCCCC#CC#CCCCCOC(=O)NCC(=O)OCCCC
TGI (M19-MEL melanoma): > 100 µM | TGI (HL-60(TB) leukemia): > 100 µM | TGI (SNB-78 CNS): > 100 µM | TGI (DLD-1 colon): > 100 µM | TGI (HCC-2998 colon): > 100 µM | TGI (UO-31 renal): > 100 µM | TGI (LXFL 529 NSCLC): > 100 µM | TGI (OVCAR-5 ovarian): > 100 µM | TGI (UACC-62 melanoma): > 100 µM | TGI (LOX IMVI melanoma): > 100 µM

COC(=O)C12Oc3ccc(-c4ccc5c(c4O)C(=O)C4=CCC(C)C(O)C4(C(=O)OC)O5)c(O)c3C(=O)C1=CCC(C)C2O (stereo not drawn)
TGI (M19-MEL melanoma): 3.63 µM | TGI (HL-60(TB) leukemia): 5.1 µM | TGI (SNB-78 CNS): 17.4 µM | TGI (DLD-1 colon): 2.14 µM | TGI (HCC-2998 colon): 2.6 µM | TGI (UO-31 renal): 2.79 µM | TGI (LXFL 529 NSCLC): 2.65 µM | TGI (SK-MEL-2 melanoma): 2.82 µM | TGI (OVCAR-5 ovarian): 3.98 µM | TGI (UACC-62 melanoma): 2.82 µM | TGI (LOX IMVI melanoma): 2.67 µM

CCCCCc1cc(OC(=O)c2c(O)cc(OC)cc2CCCCC)cc(O)c1C(=O)O
TGI (M19-MEL melanoma): 33.8 µM | TGI (HL-60(TB) leukemia): 60.2 µM | TGI (SNB-78 CNS): 57.6 µM | TGI (DLD-1 colon): 26.7 µM | TGI (HCC-2998 colon): 29 µM | TGI (UO-31 renal): 26.6 µM | TGI (LXFL 529 NSCLC): 30.5 µM | TGI (SK-MEL-2 melanoma): 31.6 µM | TGI (OVCAR-5 ovarian): 34.1 µM | TGI (UACC-62 melanoma): 28.9 µM | TGI (LOX IMVI melanoma): 33.1 µM

CC(C)(CO)CNc1cc(=O)[nH]c(N)n1
TGI (HL-60(TB) leukemia): > 100 µM | TGI (HCC-2998 colon): > 100 µM | TGI (UO-31 renal): > 100 µM | TGI (SK-MEL-2 melanoma): > 100 µM | TGI (OVCAR-5 ovarian): > 100 µM | TGI (UACC-62 melanoma): > 100 µM | TGI (LOX IMVI melanoma): > 100 µM | TGI (MDA-MB-231 breast): > 100 µM

CCCCOC(=O)C(=O)C(CCC(=O)c1ccc(C)cc1)C(=O)C=C(C)C (stereo not drawn)
TGI (HL-60(TB) leukemia): > 100 µM | TGI (HCC-2998 colon): > 100 µM | TGI (UO-31 renal): > 100 µM | TGI (SK-MEL-2 melanoma): > 100 µM | TGI (OVCAR-5 ovarian): > 100 µM | TGI (UACC-62 melanoma): > 100 µM | TGI (LOX IMVI melanoma): > 100 µM | TGI (MDA-MB-231 breast): > 100 µM

CC(=O)c1ccc(N=Nc2ccc3nonc3c2N)cc1
TGI (HL-60(TB) leukemia): > 100 µM | TGI (HCC-2998 colon): > 100 µM | TGI (UO-31 renal): > 100 µM | TGI (SK-MEL-2 melanoma): > 100 µM | TGI (OVCAR-5 ovarian): > 100 µM | TGI (UACC-62 melanoma): > 100 µM | TGI (LOX IMVI melanoma): > 100 µM | TGI (MDA-MB-231 breast): > 100 µM

COC(=O)CCCc1ccc2c(c1)CC1(C2)Cc2cc3c(cc2C1)CCCC3
TGI (HL-60(TB) leukemia): 29.2 µM | TGI (HCC-2998 colon): 74.5 µM | TGI (UO-31 renal): > 100 µM | TGI (SK-MEL-2 melanoma): 57.1 µM | TGI (OVCAR-5 ovarian): > 100 µM | TGI (UACC-62 melanoma): 67 µM | TGI (LOX IMVI melanoma): 72.1 µM | TGI (MDA-MB-231 breast): > 100 µM
